US20230340012A1, “NATURAL AND SYNTHETIC COMPOUNDS FOR TREATING CANCER AND OTHER DISEASES” (PACIFIC ARROW LIMITED, priority 2009, published 2023)

The compounds below were run on cancer cells (assay: MTT cytotoxic assay of esterification products (Cytotoxicity activity)). Conditions: esterification products isolated with HPLC; graded strong / moderate / weak.
Format: cell-based, human
Procedure, shortened: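 Cytotoxicity was read by MTT (Carmichael method, modified), with cells seeded 24 h ahead of treatment. Sixteen human cancer lines spanning bone, lung, bladder, ovary, colon, pancreas, prostate, skin, mouth, kidney, breast, liver, brain, leukemia and cervix were used. Test samples were acyl chloride esterification products of triterpenes, as mixtures or HPLC-purified compounds.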

Row | Compound | Cytotoxicity activity
1 | CC=CC(=O)OC1CCC2(C)C(CCC3(C)C2CC=C2C4CC(C)(C)C(O)C(OC(=O)C=CC)C4(COC(=O)C(C)=CC)C(O)CC23C)C1(C)COC(=O)C(C)=CC (centres unmarked) [Tig—R—Cro—6] | weak
2 | CC=C(C)C(=O)OCC1(C)C(O)CCC2(C)C1CCC1(C)C2CC=C2C3CC(C)(C)C(OC(=O)C(CC)CC)C(OC(=O)C(CC)CC)C3(COC(=O)C(C)=CC)C(O)CC21C (centres unmarked) [Tig—R—Eth—1] | weak
3 | CC=C(C)C(=O)OCC1(C)C(O)CCC2(C)C1CCC1(C)C2CC=C2C3CC(C)(C)C(OC(=O)C(CC)CC)C(O)C3(COC(=O)C(C)=CC)C(O)CC21C (centres unmarked) [Tig—R—Eth—2] | moderate
4 | CC=C(C)C(=O)OCC1(C)C(O)CCC2(C)C1CCC1(C)C2CC=C2C3CC(C)(C)C(O)C(OC(=O)C(CC)CC)C3(COC(=O)C(C)=CC)C(O)CC21C (centres unmarked) [Tig—R—Eth—3] | moderate
5 | CC=C(C)C(=O)OCC1(C)C(OC(=O)C(CC)CC)CCC2(C)C1CCC1(C)C2CC=C2C3CC(C)(C)C(O)C(O)C3(COC(=O)C(C)=CC)C(O)CC21C (centres unmarked) [Tig—R—Eth—4] | moderate
6 | CC=C(C)C(=O)OCC1(C)C(OC(=O)C(CC)CC)CCC2(C)C1CCC1(C)C2CC=C2C3CC(C)(C)C(OC(=O)C(CC)CC)C(O)C3(COC(=O)C(C)=CC)C(O)CC21C (centres unmarked) [Tig—R—Eth—5] | weak
7 | CC=C(C)C(=O)OCC1(C)C(OC(=O)C(CC)CC)CCC2(C)C1CCC1(C)C2CC=C2C3CC(C)(C)C(O)C(OC(=O)C(CC)CC)C3(COC(=O)C(C)=CC)C(O)CC21C (centres unmarked) [Tig—R—Eth—6] | weak
8 | CC=C(C)C(=O)OCC1(C)C(O)CCC2(C)C1CCC1(C)C2CC=C2C3CC(C)(C)C(OC(=O)CCCCC)C(OC(=O)CCCCC)C3(COC(=O)C(C)=CC)C(O)CC21C (centres unmarked) [Tig—R—Hex—1] | weak
9 | CC=C(C)C(=O)OCC1(C)C(O)CCC2(C)C1CCC1(C)C2CC=C2C3CC(C)(C)C(OC(=O)CCCCC)C(O)C3(COC(=O)C(C)=CC)C(O)CC21C (centres unmarked) [Tig—R—Hex—2] | moderate
10 | CC=C(C)C(=O)OCC1(C)C(O)CCC2(C)C1CCC1(C)C2CC=C2C3CC(C)(C)C(O)C(OC(=O)CCCCC)C3(COC(=O)C(C)=CC)C(O)CC21C (centres unmarked) [Tig—R—Hex—3] | moderate
11 | CC=C(C)C(=O)OCC1(C)C(OC(=O)CCCCC)CCC2(C)C1CCC1(C)C2CC=C2C3CC(C)(C)C(O)C(O)C3(COC(=O)C(C)=CC)C(O)CC21C (centres unmarked) [Tig—R—Hex—4] | moderate
12 | CC=C(C)C(=O)OCC1(C)C(OC(=O)CCCCC)CCC2(C)C1CCC1(C)C2CC=C2C3CC(C)(C)C(OC(=O)CCCCC)C(O)C3(COC(=O)C(C)=CC)C(O)CC21C (centres unmarked) [Tig—R—Hex—5] | weak
13 | CC=C(C)C(=O)OCC1(C)C(OC(=O)CCCCC)CCC2(C)C1CCC1(C)C2CC=C2C3CC(C)(C)C(O)C(OC(=O)CCCCC)C3(COC(=O)C(C)=CC)C(O)CC21C (centres unmarked) [Tig—R—Hex—6] | weak
14 | C=CCCC(=O)OC1C(OC(=O)CCC=C)C2(COC(=O)C(C)=CC)C(O)CC3(C)C(=CCC4C5(C)CCC(O)C(C)(COC(=O)C(C)=CC)C5CCC43C)C2CC1(C)C (centres unmarked) [Tig—R—Pen—1] | weak
15 | C=CCCC(=O)OC1C(O)C2(COC(=O)C(C)=CC)C(O)CC3(C)C(=CCC4C5(C)CCC(O)C(C)(COC(=O)C(C)=CC)C5CCC43C)C2CC1(C)C (centres unmarked) [Tig—R—Pen—2] | moderate
16 | C=CCCC(=O)OC1C(O)C(C)(C)CC2C3=CCC4C5(C)CCC(O)C(C)(COC(=O)C(C)=CC)C5CCC4(C)C3(C)CC(O)C21COC(=O)C(C)=CC (centres unmarked) [Tig—R—Pen—3] | moderate
17 | C=CCCC(=O)OC1CCC2(C)C(CCC3(C)C2CC=C2C4CC(C)(C)C(O)C(O)C4(COC(=O)C(C)=CC)C(O)CC23C)C1(C)COC(=O)C(C)=CC (centres unmarked) [Tig—R—Pen—4] | moderate
18 | CC=C(C)C(=O)OCC1(C)C(O)CCC2(C)C1CCC1(C)C2CC=C2C3CC(C)(C)C(OC(=O)C=C(C)C)C(OC(=O)C=C(C)C)C3(COC(=O)C(C)=CC)C(O)CC21C (centres unmarked) [Tig—R—Sen—1] | weak
19 | CC=C(C)C(=O)OCC1(C)C(O)CCC2(C)C1CCC1(C)C2CC=C2C3CC(C)(C)C(OC(=O)C=C(C)C)C(O)C3(COC(=O)C(C)=CC)C(O)CC21C (centres unmarked) [Tig—R—Sen—2] | moderate
20 | CC=C(C)C(=O)OCC1(C)C(O)CCC2(C)C1CCC1(C)C2CC=C2C3CC(C)(C)C(O)C(OC(=O)C=C(C)C)C3(COC(=O)C(C)=CC)C(O)CC21C (centres unmarked) [Tig—R—Sen—3] | moderate
21 | CC=C(C)C(=O)OCC1(C)C(OC(=O)C=C(C)C)CCC2(C)C1CCC1(C)C2CC=C2C3CC(C)(C)C(O)C(O)C3(COC(=O)C(C)=CC)C(O)CC21C (centres unmarked) [Tig—R—Sen—4] | moderate
22 | CC=C(C)C(=O)OCC1(C)C(OC(=O)C=C(C)C)CCC2(C)C1CCC1(C)C2CC=C2C3CC(C)(C)C(OC(=O)C=C(C)C)C(O)C3(COC(=O)C(C)=CC)C(O)CC21C (centres unmarked) [Tig—R—Sen—5] | weak
23 | CC=C(C)C(=O)OCC1(C)C(OC(=O)C=C(C)C)CCC2(C)C1CCC1(C)C2CC=C2C3CC(C)(C)C(O)C(OC(=O)C=C(C)C)C3(COC(=O)C(C)=CC)C(O)CC21C (centres unmarked) [Tig—R—Sen—6] | weak

Same assay, conditions: esterification products of E4A—Tig—N with senecioyl chloride

Row | Compound | Cytotoxicity activity
24 | CC=C(C)C(=O)OCC1(C)C(O)CCC2(C)C1CCC1(C)C2CC=C2C3CC(C)(C)C(OC(=O)C=C(C)C)C(O)C3(COC(=O)C=C(C)C)C(O)CC21C (centres unmarked) [Tig—Sen—2] | moderate
25 | CC=C(C)C(=O)OCC1(C)C(O)CCC2(C)C1CCC1(C)C2CC=C2C3CC(C)(C)C(O)C(OC(=O)C=C(C)C)C3(COC(=O)C=C(C)C)C(O)CC21C (centres unmarked) [Tig—Sen—3] | moderate
26 | CC=C(C)C(=O)OCC1(C)C(OC(=O)C=C(C)C)CCC2(C)C1CCC1(C)C2CC=C2C3CC(C)(C)C(O)C(O)C3(COC(=O)C=C(C)C)C(O)CC21C (centres unmarked) [Tig—Sen—4] | moderate
27 | CC=C(C)C(=O)OCC1(C)C(O)CCC2(C)C1CCC1(C)C2CC=C2C3CC(C)(C)C(OC(=O)C=C(C)C)C(O)C3(CO)C(O)CC21C (centres unmarked) [Tig—Sen—5] | moderate
28 | CC=C(C)C(=O)OCC1(C)C(O)CCC2(C)C1CCC1(C)C2CC=C2C3CC(C)(C)C(O)C(OC(=O)C=C(C)C)C3(CO)C(O)CC21C (centres unmarked) [Tig—Sen—6] | moderate

The compounds below were run on cancer cells (assay: Inhibition of cancer growth, cancer invasion, cell invasion or cancer cell invasion). Conditions: not given.
Format: cell-based
From the text: The program is based on our purification methods and biological assays including the MTT assay. See International Application No. PCT/US05/31900, filed Sep. 7, 2005, U.S. Serial No. 11/289,142, filed Nov. 28, 2005, and U.S. Serial No. 11/131551, filed May 17, 2005, and PCT/US2008/002086, 1188-ALA-PCT, filed Feb. 15, 2008, 12/344,682, 1020-B1-US, filed Dec. 29, 2008. The details of Analysis of gene expression of ES2 cells after Y-treatment by Microarray, Data Analysis Methods and Western blot in PCT/US2008/002086, 1188-ALA-PCT, filed Feb. 15, 2008, and the cell invasion experiments methods in International Application PCT/US2010/0042240, filed Jul. 16, 2010.

Row | Compound | inhibiting cancer growth, cancer invasion, cell invasion or cancer cell invasion | anti-cancer activity
29 | CC1O[C@@H](OC2[C@H](OC3[C@H](O[C@H]4C(O[C@@H]5OC(CO)[C@H](O)[C@@H](O)C5O)[C@H](O[C@H]5CC[C@@]6(C)C(CC[C@]7(C)C6CC[C@]68O[C@H](O)[C@]9(C6CC(C)(C)[C@@H](O)[C@@H]9O)[C@H](O)C[C@]87C)C5(C)C)OC(C(=O)O)[C@H]4O)OC(CO)[C@H](O)[C@H]3O)OC(C)[C@H](O)[C@@H]2O)C(O)[C@@H](O)[C@H]1O (some centres unmarked) [AKOH-M10] | do not show the ability | –
30 | CC1(C)CC2C3=CCC4[C@@]5(C)CC[C@H](O[C@@H]6OC(C(=O)O)[C@@H](O)[C@@H](O[C@@H]7O[C@@H](CO)[C@@H](O)C7O)C6O[C@@H]6OC(CO)[C@H](O)[C@@H](O)C6O)C(C)(C)C5CC[C@@]4(C)[C@]3(C)[C@@H](O)[C@@H](O)[C@@]2(CO)[C@@H](O)[C@@H]1O (some centres unmarked) [AKOH] | no effect | no anti-cancer activity
31 | CC1(C)CC2C3=CCC4C5(C)CCC(O)C(C)(CO)C5CCC4(C)C3(C)C(O)C(O)C2(CO)C(O)C1O (centres unmarked) [Compound E4AY2] | – | no anti-cancer activity
32 | CC1(C)CC2C3=CCC4C5(C)CCC(O)C(C)(C)C5CCC4(C)C3(C)CC(O)C2(CO)C(O)C1O (centres unmarked) [Compound E5A] | no effect | no anti-cancer activity

Same assay, conditions: listed as AKOH-Y

Row | Compound | inhibiting cancer growth, cancer invasion, cell invasion or cancer cell invasion
33 | CC1(C)CC2C3=CCC4[C@@]5(C)CC[C@H](O[C@@H]6OC(C(=O)O)[C@@H](O)[C@@H](O[C@@H]7O[C@@H](CO)[C@@H](O)C7O)C6O[C@@H]6OC(CO)[C@H](O)[C@@H](O)C6O)C(C)(C)C5CC[C@@]4(C)[C@]3(C)[C@@H](O)[C@@H](O)[C@@]2(CO)[C@@H](O)[C@@H]1O (some centres unmarked) [AKOH] | do not show the ability

These compounds were tested on Erythrocytes (RBC) (assay: The haemolytic assay). Conditions: in words, no concentration given.

Row | Compound | hemolytic activity
34 | CC1(C)CC2C3=CCC4[C@@]5(C)CC[C@H](O[C@@H]6OC(C(=O)O)[C@@H](O)[C@@H](O[C@@H]7O[C@@H](CO)[C@@H](O)C7O)C6O[C@@H]6OC(CO)[C@H](O)[C@@H](O)C6O)C(C)(C)C5CC[C@@]4(C)[C@]3(C)[C@@H](O)[C@@H](O)[C@@]2(CO)[C@@H](O)[C@@H]1O (some centres unmarked) [AKOH] | no hemolytic activity
35 | CC1(C)CC2C3=CCC4C5(C)CCC(O)C(C)(CO)C5CCC4(C)C3(C)C(O)C(O)C2(CO)C(O)C1O (centres unmarked) [Compound E4AY2] | no hemolytic activity
36 | CC1(C)CC2C3=CCC4C5(C)CCC(O)C(C)(C)C5CCC4(C)C3(C)CC(O)C2(CO)C(O)C1O (centres unmarked) [Compound E5A] | no hemolytic activity
